Results as given in publication PMC7170388, “Strong inhibitory activities and action modes of lipopeptides on lipase” (Journal of Enzyme Inhibition and Medicinal Chemistry, 2020).
Converted amounts (≈) assume the structure as drawn. Like-named read-outs stand apart in the source and are kept apart here. No end group written: not given here.

Experiments:
[1] = biological target: T1, Mucor miehei lipase (Mucor miehei, UniProt P19515 95-363)
T1 sequence (looked up): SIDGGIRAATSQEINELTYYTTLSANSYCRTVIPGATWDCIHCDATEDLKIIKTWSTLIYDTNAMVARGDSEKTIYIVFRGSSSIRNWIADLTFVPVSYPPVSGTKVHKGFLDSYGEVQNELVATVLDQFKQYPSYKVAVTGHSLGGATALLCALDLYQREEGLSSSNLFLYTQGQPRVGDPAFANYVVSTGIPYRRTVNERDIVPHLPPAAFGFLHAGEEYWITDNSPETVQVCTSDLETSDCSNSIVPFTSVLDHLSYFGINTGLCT

[2] = biological target: T1, Mucor miehei lipase; test: other fluorescence titration; quenching of the intrinsic fluorescence of lipase (emission peak 338 nm) by crude lipopeptide at 0-0.457 mg/mL; Stern-Volmer and double-logarithmic plots
[3] = biological target: T2, Mucor miehei lipase (Rhizomucor miehei, UniProt P19515); test: Lipase inhibition (4-NPP hydrolysis, 405 nm); details: relative to iturin
T2 sequence (P19515 95-363): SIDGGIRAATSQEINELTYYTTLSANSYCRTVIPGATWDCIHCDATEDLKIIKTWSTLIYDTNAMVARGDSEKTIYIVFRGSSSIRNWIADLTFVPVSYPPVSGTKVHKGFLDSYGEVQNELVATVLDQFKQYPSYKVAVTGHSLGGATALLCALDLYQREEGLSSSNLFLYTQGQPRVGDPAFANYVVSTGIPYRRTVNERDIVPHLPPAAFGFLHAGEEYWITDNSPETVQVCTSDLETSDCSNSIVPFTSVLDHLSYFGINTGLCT
Protocol: Lyophilised powder of Mucor miehei lipase (EC3.1.1.3), 4-Nitrophenyl palmitate (4-NPP), iturin, and surfactin were purchased from Sigma-Aldrich (St. Louis, MO). Acetonitrile, hydrochloric acid (HCl) and Tris were purchased from Sinopharm (Shanghai, China).
The lipase inhibition was determined according to the method described by Liu et al.[21] 10 µg/mL lipase in water and 7.5 mmol/L 4-NPP in acetonitrile solutions were prepared. […] The 1 mL reaction mixture contained 0.75 mM 4-NPP, 0.4 µg/mL lipase, and different concentrations of inhibitor in Tris-HCl buffer (pH 7.8). The reaction was carried out at 37 °C and the detection wavelength was set at 405 nm.

[4] = from 72 mN/m; cited from earlier work
Text: In fact, it has been reported that bacterial cyclic lipopeptides are the most popular amphiphilic molecules that are excellent surface active compounds[12]. The genus Bacillus is described as an efficient source of lipopeptide biosurfactants. The Bacillus lipopeptides are divided into three different families, including iturins, surfactins, and fengycins, ...

[5] = biological target: T2, Mucor miehei lipase; test: Inhibition mechanism and type of lipopeptides on lipase (activity vs enzyme concentration; Lineweaver-Burk); format: biochemical; design: purchased Sigma-Aldrich (St. Louis, MO); details: for Inhibition effect: Type: Lineweaver-Burk plot, Tris-HCl buffer, 100 µL lipase; for IC50, Calculated: calculated value of Table 2; for Inhibition effect: Mechanisms: remaining enzyme activity vs enzyme concentration, lines intersecting at the origin, fixed substrate; for Inhibition constant KI: secondary plot of 1/Vm versus inhibitor concentration
Protocol: The inhibition mechanisms were studied by fixing the concentration of substrate and changing the lipopeptides and enzymes to monitor enzymatic reaction. The inhibition types were determined based on the Lineweaver-Burk plot[22]; this reaction system contained different concentrations of substrate and lipopeptide and 100 µL of lipase in Tris-HCl buffer. Then, the inhibition constant was calculated from a secondary plot of 1/Vm versus the inhibitor concentration.

[6] = tested on: lipase; details: cited from earlier work; for IC50 on lipase: previously reported
Text: The inhibition mechanisms of crude lipopeptide, fengycin, and surfactin on lipase catalysis were studied.

[7] = biological target: T1, Mucor miehei lipase; remark: listed apart in the source
[8] = reported to cause certain side effects; cited from earlier work
Text: Dietary and lifestyle modifications such as calorie restriction and physical exercises are the common strategies adopted to control body weight; further, these methods have limited anti-obesity effects. It has previously been reported that lipase inhibition is a potential strategy for counteracting obesity. Digestive lipase hydrolyses non-absorbable dietary triglycerides to smaller absorbable molecules of monoglycerides and free fatty acids, which are absorbed by the intestine. Inhibiting digestive lipase can reduce intestinal fat absorption. Human pancreatic lipase is the main enzyme ...

[9] = biological target: T1, Mucor miehei lipase; test: cell-based or functional assay

## crude lipopeptide from Bacillus velezensis FJAT-52631
[1]
  IC50 (calculated) of inhibition of lipase activity: 8 µg/mL
  IC50 (measured) of inhibition of lipase activity (4-NPP hydrolysis): 11 µg/mL
[2]
  Ksv (Stern-Volmer quenching constant): 0.525 L/g
  stoichiometry N: 0.78

## purified fengycin from Bacillus velezensis FJAT-52631 (peptide)
[1]
  IC50 (calculated) of inhibition of lipase activity: 2 µg/mL
  IC50 (measured) of inhibition of lipase activity (4-NPP hydrolysis): 5 µg/mL

## surfactin
[3]
  stronger lipase inhibition activity than iturin: about 10 -fold
[4]
  surface tension of water lowered to: 27 mN/m
[5]
  Inhibition effect: Type: Competitive inhibition
  IC50, Calculated: 1 µg/mL
  Inhibition effect: Mechanisms: Reversible
  Inhibition constant KI: 1 µg/mL
[5]; listed as surfactin
  Inhibition effect: Type: competitive

## fengycin
[3]
  stronger lipase inhibition activity than iturin: about 10 -fold
[5]
  Inhibition effect: Type: Competitive inhibition
  IC50, Calculated: 2 µg/mL
  Inhibition effect: Mechanisms: Reversible
  Inhibition constant KI: 1 µg/mL
[5]; listed as fengycin
  Inhibition effect: Type: competitive

## O=C(O)C(=O)O [oxalic acid]
[6]
  inhibition mechanism on lipase: reversible
  IC50 on lipase: 1425 µg/mL (≈ 15.8 mM)

## iturin standard (peptide)
[7]
  IC50 of inhibition of lipase activity (4-NPP hydrolysis): 56 µg/mL

## O=C(O)c1ccco1 [furoic acid]
[6]
  inhibition mechanism on lipase: reversible
  IC50 on lipase: 242 µg/mL (≈ 2.16 mM)

## CCCCCCCCCCC[C@@H](C[C@@H]1OC(=O)[C@H]1CCCCCC)OC(=O)[C@H](CC(C)C)NC=O [orlistat]
[6]
  inhibition mechanism on lipase: irreversible
[8]
  side effects: oily stools, oily spotting, and flatulence

B1: surfactin standard (peptide)
chain: ELLVDLL
modifications: not fully specified (residues 3, 6, N-terminus, bridges); also: cyclic peptide ring with beta-hydroxy fatty acid chain, attachment not given here
[9]
  IC50 (calculated) of inhibition of lipase activity: 1 µg/mL
  IC50 (measured) of inhibition of lipase activity (4-NPP hydrolysis): 5 µg/mL
